# Test results: ChEMBL document CHEMBL1201862, “PubChem BioAssay data set” (2004)
# Active and inactive are the calls of the source.
# How the values were obtained:
# [1] = biological target: Peroxisome proliferator-activated receptor gamma/Nuclear receptor coactivator 1 (Homo sapiens, UniProt P37231); assay: (§1) TR-FRET dose response biochemical High Throughput Screening assay for agonists of the steroid receptor coactivator 1 (SRC-1) recruitment by the peroxisome proliferator-activated receptor gamma (PPAR gamma): non-selective agonists. [Related pubchem assays (depositor defined):AID1300, AID1808, AID504735, AID631]; format: protein assay
# [2] = biological target: Peroxisome proliferator-activated receptor gamma/Nuclear receptor coactivator 3 (Homo sapiens, UniProt P37231); assay: as §1, with “3 (SRC-3)” for “1 (SRC-1)”, “assays: 1301 (Confirmation screen.), 1048 (Primary screen.)]” for “assays (depositor defined):AID1300, AID1808, AID504735, AID631]”; format: functional
# [3] = biological target: Peroxisome proliferator-activated receptor gamma/Nuclear receptor coactivator 2 (Homo sapiens, UniProt P37231); assay: TR-FRET dose response biochemical High Throughput Screening assay for agonists of the steroid receptor coactivator 2 (SRC-2) recruitment by the peroxisome proliferator-activated receptor gamma (PPAR gamma): non-selective agonists. [Related pubchem assays: 1297, 1032 ]; format: functional
# [4] = biological target: T1, Coagulation factor XII (Homo sapiens, UniProt P00748); format: functional;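 note: activated factor XIIa alpha cleaving a fluorogenic AMC peptide substrate; inhibitor potency from loss of enzyme activity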
# T1 sequence (P00748 whole entry): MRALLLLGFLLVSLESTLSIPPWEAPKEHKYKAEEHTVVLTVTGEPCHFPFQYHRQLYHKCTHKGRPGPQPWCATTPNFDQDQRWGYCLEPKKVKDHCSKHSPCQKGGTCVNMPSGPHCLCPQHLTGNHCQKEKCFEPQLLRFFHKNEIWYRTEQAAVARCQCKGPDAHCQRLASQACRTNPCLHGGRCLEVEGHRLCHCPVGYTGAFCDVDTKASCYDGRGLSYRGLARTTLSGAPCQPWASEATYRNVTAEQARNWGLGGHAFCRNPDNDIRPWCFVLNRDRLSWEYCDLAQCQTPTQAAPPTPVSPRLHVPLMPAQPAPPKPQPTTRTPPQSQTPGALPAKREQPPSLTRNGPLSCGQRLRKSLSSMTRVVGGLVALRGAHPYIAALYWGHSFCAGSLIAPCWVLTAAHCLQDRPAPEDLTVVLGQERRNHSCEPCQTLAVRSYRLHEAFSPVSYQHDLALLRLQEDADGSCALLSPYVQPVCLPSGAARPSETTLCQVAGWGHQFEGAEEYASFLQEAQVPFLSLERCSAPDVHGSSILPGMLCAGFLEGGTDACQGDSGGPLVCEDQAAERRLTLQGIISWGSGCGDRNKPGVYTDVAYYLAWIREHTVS
# [5] = biological target: Beta-galactosidase (Escherichia coli, UniProt Q8VNN2); assay: PubChem AID 485352; format: functional
# [6] = biological target: T2, Type-1 angiotensin II receptor (Homo sapiens, UniProt P30556); assay: antagonism of angiotensin II type 1 receptor – cell-based, uHTS hits, selectivity assay for APJ receptor antagonist project, dose response (AID 463214); format: functional;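 note: antagonist potency against angiotensin II stimulated AT1 response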
# T2 sequence (P30556 whole entry): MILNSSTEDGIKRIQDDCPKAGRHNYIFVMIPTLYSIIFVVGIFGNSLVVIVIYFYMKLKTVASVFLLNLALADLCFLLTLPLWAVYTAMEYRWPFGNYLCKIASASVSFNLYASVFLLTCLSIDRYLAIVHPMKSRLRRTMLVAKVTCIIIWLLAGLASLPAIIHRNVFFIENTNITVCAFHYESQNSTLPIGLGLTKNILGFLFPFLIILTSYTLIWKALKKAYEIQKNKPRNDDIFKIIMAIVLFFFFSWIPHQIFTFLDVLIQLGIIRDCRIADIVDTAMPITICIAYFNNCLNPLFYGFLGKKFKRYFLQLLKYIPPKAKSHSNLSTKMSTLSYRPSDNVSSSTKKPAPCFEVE
# [7] = biological target: Heat shock protein HSP 90-alpha (Homo sapiens, UniProt P07900); format: functional, organism-based
# [8] = biological target: T3, Oxysterols receptor LXR-beta (Homo sapiens, UniProt P55055); format: functional, cell-based;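 note: agonist activity at LXR measured by a cell-based luminescence readout across a dose range, run as a counterscreen for daf-12 agonists; HEK293 cells with Gal4-LXR fusion and GAL4-driven luciferase reporter; potency for activation of Gal4-LXR reporter so compounds are agonists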
# T3 sequence (P55055 whole entry): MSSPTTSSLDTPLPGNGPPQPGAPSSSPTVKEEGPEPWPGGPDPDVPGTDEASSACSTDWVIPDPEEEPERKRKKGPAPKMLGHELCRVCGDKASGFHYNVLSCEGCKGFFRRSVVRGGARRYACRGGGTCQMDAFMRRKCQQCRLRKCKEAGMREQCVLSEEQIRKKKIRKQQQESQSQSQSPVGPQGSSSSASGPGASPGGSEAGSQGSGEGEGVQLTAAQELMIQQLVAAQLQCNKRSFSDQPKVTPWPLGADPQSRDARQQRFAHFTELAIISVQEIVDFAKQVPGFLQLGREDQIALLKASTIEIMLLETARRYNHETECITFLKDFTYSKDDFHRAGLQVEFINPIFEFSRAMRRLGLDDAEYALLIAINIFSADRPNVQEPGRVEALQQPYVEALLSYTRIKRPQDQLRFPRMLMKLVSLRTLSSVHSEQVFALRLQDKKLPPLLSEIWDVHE
# [9] = system: HEK293; assay: cells; details: Homo sapiens
# [10] = system: HEK293; assay: cells; details: Homo sapiens; remark: listed apart in the source
# [11] = biological target: Glyceraldehyde-3-phosphate dehydrogenase (Homo sapiens, UniProt P04406)
# [12] = biological target: T4, Alkaline phosphatase, tissue-nonspecific isozyme (Homo sapiens, UniProt P05186); assay: potency against alkaline phosphatase TNAP – biochemical, luminescent, dose response, SAR follow-up (AID 1056)
# T4 sequence (P05186 whole entry): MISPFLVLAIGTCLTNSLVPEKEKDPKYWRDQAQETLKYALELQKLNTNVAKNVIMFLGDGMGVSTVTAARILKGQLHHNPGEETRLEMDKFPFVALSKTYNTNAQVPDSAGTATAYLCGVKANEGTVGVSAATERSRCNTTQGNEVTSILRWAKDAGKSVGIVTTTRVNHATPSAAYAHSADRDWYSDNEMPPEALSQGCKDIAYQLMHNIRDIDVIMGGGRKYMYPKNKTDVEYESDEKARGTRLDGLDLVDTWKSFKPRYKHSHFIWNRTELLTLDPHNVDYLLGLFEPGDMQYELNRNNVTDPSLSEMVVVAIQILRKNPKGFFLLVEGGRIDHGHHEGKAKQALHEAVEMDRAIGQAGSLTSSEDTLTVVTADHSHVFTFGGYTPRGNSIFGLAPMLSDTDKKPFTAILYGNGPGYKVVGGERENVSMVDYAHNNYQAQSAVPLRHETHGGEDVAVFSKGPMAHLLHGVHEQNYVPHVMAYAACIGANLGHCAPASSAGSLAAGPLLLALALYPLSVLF
# [13] = HEK-293T cell viability reduction – luminescence, B-cell screen hits, cytotoxicity control for BCR NF-kB inhibitor project, dose response (AID 489021); format: functional, cell-based;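 note: HEK-293T cells carrying an NF-kB luciferase reporter; cells exposed to compound for about 14 hours before viability readout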
# [14] = biological target: T5, Bcl-2-related protein A1 (Mus musculus, UniProt Q07440); format: functional;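 note: confirmatory dose–response counterscreen on Bfl-1, used to check hits from a UBC13 polyubiquitin inhibitor campaign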
# T5 sequence (Q07440 whole entry): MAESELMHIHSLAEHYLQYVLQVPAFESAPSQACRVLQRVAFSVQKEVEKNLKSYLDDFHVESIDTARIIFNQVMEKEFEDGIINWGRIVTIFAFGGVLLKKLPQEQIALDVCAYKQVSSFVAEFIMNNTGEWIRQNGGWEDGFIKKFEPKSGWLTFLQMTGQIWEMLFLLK
# [15] = biological target: T6, Ubiquitin-conjugating enzyme E2 N (Homo sapiens, UniProt P61088); format: functional
# T6 sequence (P61088 whole entry): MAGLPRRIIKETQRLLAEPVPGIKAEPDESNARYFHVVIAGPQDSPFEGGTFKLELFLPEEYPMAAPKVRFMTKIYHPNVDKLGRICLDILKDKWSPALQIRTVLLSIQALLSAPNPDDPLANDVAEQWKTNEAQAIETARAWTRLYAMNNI
# [16] = biological target: T6, Ubiquitin-conjugating enzyme E2 N; format: functional; remark: listed apart in the source
# [17] = biological target: Nonstructural protein 1 (Influenza A virus, UniProt Q194T2); format: functional, Influenza A virus (A/California/07/2009(H1N1))
# [18] = biological target: T7, Sentrin-specific protease 8 (Homo sapiens, UniProt Q96LD8); format: functional
# T7 sequence (Q96LD8 whole entry): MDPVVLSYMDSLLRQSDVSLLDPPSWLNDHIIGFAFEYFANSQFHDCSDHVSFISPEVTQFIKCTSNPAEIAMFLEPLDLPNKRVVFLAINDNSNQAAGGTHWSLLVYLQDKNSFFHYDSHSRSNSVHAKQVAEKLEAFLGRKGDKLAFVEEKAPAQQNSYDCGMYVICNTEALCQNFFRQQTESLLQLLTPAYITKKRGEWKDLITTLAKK
# [19] = biological target: T7, Sentrin-specific protease 8; format: functional; remark: listed apart in the source
# [20] = biological target: T8, DNA repair protein RAD52 homolog (Homo sapiens, UniProt P43351); format: functional, biochemical
# T8 sequence (P43351 whole entry): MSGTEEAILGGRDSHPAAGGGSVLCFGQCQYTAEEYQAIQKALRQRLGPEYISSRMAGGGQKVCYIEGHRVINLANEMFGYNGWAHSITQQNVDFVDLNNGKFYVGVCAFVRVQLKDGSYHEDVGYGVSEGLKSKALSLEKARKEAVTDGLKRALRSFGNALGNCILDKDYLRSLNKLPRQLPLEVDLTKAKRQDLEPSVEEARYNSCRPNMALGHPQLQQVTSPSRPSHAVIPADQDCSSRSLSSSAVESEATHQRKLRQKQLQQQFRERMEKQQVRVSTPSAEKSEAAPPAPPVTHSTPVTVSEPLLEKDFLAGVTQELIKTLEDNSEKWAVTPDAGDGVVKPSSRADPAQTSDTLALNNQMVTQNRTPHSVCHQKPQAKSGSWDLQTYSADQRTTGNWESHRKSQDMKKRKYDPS
# [21] = biological target: T9, Protein Rev (Human immunodeficiency virus type 1 group M subtype B (isolate HXB2)(HIV-1), UniProt P04618); assay: blockers of HIV Rev/RRE RNA complex – biochemical, fluorescence polarization, HIV-1, dose response (AID 434976); design: species or system Human immunodeficiency virus 1
# T9 sequence (P04618 whole entry): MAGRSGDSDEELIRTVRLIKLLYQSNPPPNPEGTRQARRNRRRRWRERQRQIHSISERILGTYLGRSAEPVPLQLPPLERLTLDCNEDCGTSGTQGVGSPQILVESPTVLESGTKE
# [22] = biological target: T10, Female germline-specific tumor suppressor gld-1 (Caenorhabditis elegans, UniProt Q17339); assay: blockers of GLD-1/TGE RNA complex formation – biochemical, fluorescence polarization, C. elegans, dose response (AID 2802);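 note: fluorescence polarization of labeled TGE RNA bound by purified gld-1 protein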
# T10 sequence (Q17339 whole entry): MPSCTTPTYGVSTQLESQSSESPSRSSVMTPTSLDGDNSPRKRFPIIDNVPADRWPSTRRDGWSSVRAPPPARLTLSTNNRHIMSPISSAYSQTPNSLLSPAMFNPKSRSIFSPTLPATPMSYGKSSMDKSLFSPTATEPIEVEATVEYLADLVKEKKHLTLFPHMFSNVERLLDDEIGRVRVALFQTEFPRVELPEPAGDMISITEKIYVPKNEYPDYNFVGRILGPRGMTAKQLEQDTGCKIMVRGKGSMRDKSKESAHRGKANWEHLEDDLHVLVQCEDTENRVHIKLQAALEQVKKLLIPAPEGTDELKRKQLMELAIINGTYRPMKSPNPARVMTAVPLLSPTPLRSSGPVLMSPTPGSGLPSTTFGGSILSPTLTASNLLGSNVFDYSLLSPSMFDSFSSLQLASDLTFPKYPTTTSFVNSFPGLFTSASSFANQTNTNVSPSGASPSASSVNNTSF
# [23] = biological target: Genome polyprotein (dengue virus type 2, UniProt P29990); assay: flavivirus cap methylation enzyme inhibition – biochemical, confirmation dose response, primary screen (AID 588689); format: functional
# Peroxisome proliferator-activated receptor gamma/Nuclear receptor coactivator 1, sequence (P37231 whole entry): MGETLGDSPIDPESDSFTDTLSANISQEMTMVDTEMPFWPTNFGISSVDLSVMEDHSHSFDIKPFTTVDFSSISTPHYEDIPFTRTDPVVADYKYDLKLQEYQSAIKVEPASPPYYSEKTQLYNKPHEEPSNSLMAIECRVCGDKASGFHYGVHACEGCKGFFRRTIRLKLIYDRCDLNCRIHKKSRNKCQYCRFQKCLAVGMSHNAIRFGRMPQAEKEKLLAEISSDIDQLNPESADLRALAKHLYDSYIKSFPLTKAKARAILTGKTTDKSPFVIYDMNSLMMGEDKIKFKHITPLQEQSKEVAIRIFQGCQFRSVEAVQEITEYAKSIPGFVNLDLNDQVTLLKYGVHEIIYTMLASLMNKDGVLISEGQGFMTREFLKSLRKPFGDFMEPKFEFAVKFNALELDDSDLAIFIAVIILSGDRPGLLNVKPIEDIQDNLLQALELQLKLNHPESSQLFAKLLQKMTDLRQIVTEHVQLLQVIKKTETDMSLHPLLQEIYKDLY
# Peroxisome proliferator-activated receptor gamma/Nuclear receptor coactivator 1, sequence (Q15788 whole entry, further chain): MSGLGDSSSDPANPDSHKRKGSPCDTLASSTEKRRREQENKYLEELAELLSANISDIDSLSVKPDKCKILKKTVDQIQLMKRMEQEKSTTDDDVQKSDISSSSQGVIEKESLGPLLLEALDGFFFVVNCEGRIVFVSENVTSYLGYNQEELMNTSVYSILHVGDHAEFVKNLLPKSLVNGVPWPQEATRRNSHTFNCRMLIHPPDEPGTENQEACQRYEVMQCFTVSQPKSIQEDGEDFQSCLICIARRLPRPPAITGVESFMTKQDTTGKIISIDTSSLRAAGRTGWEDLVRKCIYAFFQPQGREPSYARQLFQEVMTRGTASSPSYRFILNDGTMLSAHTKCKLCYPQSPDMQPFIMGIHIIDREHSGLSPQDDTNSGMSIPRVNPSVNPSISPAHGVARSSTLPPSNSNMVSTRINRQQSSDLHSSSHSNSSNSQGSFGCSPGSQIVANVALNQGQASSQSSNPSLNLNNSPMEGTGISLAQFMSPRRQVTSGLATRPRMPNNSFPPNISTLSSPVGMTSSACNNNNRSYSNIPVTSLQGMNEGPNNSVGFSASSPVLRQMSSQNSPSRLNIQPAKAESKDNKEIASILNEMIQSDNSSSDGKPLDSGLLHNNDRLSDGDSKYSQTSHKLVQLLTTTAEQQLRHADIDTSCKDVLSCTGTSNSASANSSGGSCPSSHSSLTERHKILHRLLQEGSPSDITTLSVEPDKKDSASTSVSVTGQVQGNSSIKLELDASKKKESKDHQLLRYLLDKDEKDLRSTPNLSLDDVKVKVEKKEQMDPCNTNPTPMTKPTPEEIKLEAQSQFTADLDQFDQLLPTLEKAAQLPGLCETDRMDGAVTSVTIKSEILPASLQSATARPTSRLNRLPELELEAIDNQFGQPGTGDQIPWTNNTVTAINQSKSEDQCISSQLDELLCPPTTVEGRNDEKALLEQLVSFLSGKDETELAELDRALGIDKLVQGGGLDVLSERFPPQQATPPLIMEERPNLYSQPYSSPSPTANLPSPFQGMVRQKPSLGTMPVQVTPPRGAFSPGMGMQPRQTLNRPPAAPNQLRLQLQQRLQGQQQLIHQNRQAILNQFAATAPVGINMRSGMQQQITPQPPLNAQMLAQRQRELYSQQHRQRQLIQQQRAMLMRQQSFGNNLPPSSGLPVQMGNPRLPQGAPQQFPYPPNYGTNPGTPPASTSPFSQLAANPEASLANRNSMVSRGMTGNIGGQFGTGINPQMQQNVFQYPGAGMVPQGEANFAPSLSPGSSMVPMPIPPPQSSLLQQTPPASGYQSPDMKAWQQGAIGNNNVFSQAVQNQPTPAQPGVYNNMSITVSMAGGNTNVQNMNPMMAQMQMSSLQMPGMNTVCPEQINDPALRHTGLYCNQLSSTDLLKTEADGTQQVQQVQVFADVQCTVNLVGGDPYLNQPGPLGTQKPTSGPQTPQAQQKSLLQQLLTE
# Peroxisome proliferator-activated receptor gamma/Nuclear receptor coactivator 3, sequence (P37231 whole entry): as the sequence (P37231 whole entry) above
# Peroxisome proliferator-activated receptor gamma/Nuclear receptor coactivator 3, sequence (Q9Y6Q9 whole entry, further chain): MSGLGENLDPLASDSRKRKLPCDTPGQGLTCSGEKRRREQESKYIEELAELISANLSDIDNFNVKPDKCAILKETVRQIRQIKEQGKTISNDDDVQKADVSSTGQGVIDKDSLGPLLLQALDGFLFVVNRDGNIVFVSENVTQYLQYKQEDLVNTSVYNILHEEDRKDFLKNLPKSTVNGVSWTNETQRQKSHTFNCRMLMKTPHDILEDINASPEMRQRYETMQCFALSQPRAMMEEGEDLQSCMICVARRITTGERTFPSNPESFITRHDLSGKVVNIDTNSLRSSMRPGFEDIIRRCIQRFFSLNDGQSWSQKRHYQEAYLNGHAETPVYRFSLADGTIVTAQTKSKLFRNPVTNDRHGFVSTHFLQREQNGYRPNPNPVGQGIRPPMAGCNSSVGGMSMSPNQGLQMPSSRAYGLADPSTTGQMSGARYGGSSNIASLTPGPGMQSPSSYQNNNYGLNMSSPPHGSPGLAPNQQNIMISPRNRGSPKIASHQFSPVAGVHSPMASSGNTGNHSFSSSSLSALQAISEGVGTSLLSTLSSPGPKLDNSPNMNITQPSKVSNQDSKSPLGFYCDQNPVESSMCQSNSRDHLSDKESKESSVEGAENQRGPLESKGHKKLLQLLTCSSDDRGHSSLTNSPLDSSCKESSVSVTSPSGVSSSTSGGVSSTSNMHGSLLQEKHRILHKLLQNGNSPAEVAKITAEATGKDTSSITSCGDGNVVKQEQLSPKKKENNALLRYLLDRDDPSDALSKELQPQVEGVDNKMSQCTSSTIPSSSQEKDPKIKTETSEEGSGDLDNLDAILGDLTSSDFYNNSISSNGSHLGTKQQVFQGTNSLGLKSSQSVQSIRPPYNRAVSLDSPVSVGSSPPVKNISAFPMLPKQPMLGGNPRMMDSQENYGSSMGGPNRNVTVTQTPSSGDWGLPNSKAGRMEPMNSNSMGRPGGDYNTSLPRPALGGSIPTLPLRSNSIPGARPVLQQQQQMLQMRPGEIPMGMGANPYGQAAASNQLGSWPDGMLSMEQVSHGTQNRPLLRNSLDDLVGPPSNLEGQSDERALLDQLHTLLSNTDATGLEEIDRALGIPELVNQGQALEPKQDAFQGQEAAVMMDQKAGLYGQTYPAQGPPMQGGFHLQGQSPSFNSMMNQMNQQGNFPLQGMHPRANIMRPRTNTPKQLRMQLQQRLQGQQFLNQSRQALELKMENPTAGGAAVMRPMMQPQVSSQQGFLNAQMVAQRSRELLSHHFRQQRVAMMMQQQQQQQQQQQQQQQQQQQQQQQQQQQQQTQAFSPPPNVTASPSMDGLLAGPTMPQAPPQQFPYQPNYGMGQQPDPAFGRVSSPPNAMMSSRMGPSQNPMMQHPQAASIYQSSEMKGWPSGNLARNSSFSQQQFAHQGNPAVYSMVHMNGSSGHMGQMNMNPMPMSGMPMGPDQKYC
# Glyceraldehyde-3-phosphate dehydrogenase, sequence (P04406 whole entry): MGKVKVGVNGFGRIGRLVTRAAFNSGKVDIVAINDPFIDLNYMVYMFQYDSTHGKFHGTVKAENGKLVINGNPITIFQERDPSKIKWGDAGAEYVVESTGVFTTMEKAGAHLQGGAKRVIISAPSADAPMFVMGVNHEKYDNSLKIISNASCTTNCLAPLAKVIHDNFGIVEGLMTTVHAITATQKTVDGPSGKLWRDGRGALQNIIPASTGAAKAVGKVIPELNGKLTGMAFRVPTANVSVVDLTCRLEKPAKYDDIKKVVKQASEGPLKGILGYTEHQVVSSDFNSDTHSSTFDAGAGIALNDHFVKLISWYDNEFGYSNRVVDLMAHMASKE
# Nonstructural protein 1, sequence (Q194T2 whole entry): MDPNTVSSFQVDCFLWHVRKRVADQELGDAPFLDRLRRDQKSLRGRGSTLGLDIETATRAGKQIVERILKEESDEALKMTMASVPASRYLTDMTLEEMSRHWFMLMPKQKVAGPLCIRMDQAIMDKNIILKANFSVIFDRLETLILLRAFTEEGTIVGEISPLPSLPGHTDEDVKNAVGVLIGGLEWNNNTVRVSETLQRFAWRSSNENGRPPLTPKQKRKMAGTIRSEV
compound,measurement,setting,value
Cc1cc(N2C(=O)C(O)=C(C(=O)c3ccc(Cl)cc3)C2c2cccc(Br)c2)no1 (centres undefined),EC50,[1],> 79.4 µM (inactive)
same,EC50,[2],> 79.4 µM (not active)
same,EC50,[3],113 µM (not active)
COc1ccccc1CC(=O)NN1C(=O)c2ccccc2C1=O,IC50,[4],> 50 µM (inactive)
COc1cccc(/C=C/c2ccc3cccc(O)c3n2)c1,EC50,[5],> 40 µM (inactive)
same,IC50,[6],15.1 µM (active)
same,AC50,[7],24.4 µM (active)
same,EC50,[8],> 67.5 µM (inactive)
same,EC50,[9],> 59.7 µM (inactive)
same,EC50,[10],> 0.0091 µM (active)
O=S(=O)(Nc1cnc2ccccc2c1)c1ccccc1,IC50,[11],> 100 µM (not active)
same,IC50,[12],> 100 µM (inactive)
Cn1c(=O)cc(SCC(=O)N2CCCC2)c2cc(Cl)ccc21,EC50,[1],> 79.4 µM (inactive)
same,EC50,[2],> 79.4 µM (not active)
same,EC50,[3],> 79.4 µM (not active)
same,IC50,[13],> 80 µM (inactive)
CCCCc1nc2sc3c(SCC(=O)NCc4ccco4)ncnc3c2c2c1CCC2,EC50,[1],78.6 µM (inactive)
same,EC50,[2],> 79.4 µM (not active)
same,EC50,[3],58.8 µM (not active)
O=C1c2ccccc2C(=O)N1c1nnc(Cc2ccc(F)cc2)[nH]1,IC50,[11],> 100 µM (not active)
same,IC50,[12],4.66 µM (active)
CN1CCN(c2cc(-c3cc(O)c4ncccc4c3)ccn2)CC1,IC50,[14],12.5 µM (active)
same,IC50,[15],15.6 µM (active)
same,IC50,[16],10.8 µM (active)
same,IC50,[17],9.85 µM (active)
same,IC50,[18],5.17 µM (active)
same,IC50,[19],6.88 µM (active)
same,AC50,[20],1.58 µM (active)
CC(=O)Nc1nnc(S(C)(=O)=O)[nH]1,IC50,[11],> 100 µM (not active)
same,IC50,[12],> 100 µM (inactive)
CCOc1cc(CO)ccc1OCC(=O)N1CCCCC1,IC50,[4],> 50 µM (inactive)
Cc1ccc(C(=O)N/N=C/c2ccc(-c3ccc(Br)cc3[N+](=O)[O-])o2)o1,IC50,[21],> 25.1 µM (not active)
same,IC50,[22],10.4 µM (inactive)
same,IC50,[23],> 100 µM (active)
